Measurements: US20080009418A1, “Selective Inhibitors” (Alchemia LTD., priority 2004, published 2008)

What was measured:
Conditions in all cases: compound at 10 μM
[1] = molecular target: T1, Human δ-opioid (DOP) (Homo sapiens, UniProt P41143); assay: Radioligand binding, human δ-opioid (DOP) membranes, FlashPlate, [3H]-Bremazocine
T1 construct: purchased Perkin Elmer Biosignal
Method in brief: (§1)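 Cloned human receptor membranes were coated onto FlashPlate wells and incubated with radioligand and compound (added from a 0.5 mM DMSO daughter plate) for 1 hour at room temperature in the dark. Scintillation counting gave percent inhibition, with DMSO defining total and reference ligand defining non-specific binding.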

[2] = molecular target: T2, Human κ-Opioid (KOP) (Homo sapiens, UniProt P41145); assay: Radioligand binding, human κ-opioid (KOP) membranes, filtration, [3H]-Diprenorphine
T2 construct: purchased Perkin Elmer Biosignal
T2 sequence (P41145 whole entry): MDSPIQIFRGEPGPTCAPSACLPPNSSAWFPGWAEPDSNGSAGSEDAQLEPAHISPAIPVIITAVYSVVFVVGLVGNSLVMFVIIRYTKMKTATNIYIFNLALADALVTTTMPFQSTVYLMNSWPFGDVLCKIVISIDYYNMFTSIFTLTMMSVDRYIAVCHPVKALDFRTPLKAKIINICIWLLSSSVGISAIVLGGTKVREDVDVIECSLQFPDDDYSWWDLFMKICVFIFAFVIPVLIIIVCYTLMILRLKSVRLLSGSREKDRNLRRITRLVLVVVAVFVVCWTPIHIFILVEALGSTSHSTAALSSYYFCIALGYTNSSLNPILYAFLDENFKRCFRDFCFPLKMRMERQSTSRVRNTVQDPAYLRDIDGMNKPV
Method in brief: (§2)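 Percent inhibition of radioligand binding measured on recombinant human membranes: NK1 with [125I]-Substance P, KOP with [3H]-Diprenorphine. Incubation 1 h at room temperature, then harvest onto 0.3% PEI-soaked filters, cold Tris-HCl pH 7.4 washes and scintillation counting; non-specific binding from reference ligand wells.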

[3] = molecular target: T3, Human Melanocortin (MC3) (Homo sapiens, UniProt P41968); assay: Radioligand binding, human melanocortin MC3 membranes, FlashPlate, [125I]-NDP-αMSH
T3 construct: purchased Perkin Elmer Biosignal
T3 sequence (P41968 whole entry): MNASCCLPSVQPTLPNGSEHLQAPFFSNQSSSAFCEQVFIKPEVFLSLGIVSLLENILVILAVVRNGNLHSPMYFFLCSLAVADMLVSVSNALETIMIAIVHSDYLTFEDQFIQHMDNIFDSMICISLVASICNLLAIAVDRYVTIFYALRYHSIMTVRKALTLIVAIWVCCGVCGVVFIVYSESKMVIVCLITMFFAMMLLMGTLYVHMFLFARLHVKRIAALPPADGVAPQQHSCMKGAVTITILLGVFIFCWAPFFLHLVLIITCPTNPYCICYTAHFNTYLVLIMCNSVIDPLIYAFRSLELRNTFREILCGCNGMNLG
Method in brief: as §1

[4] = molecular target: T4, Human Melanocortin (MC4) (Homo sapiens, UniProt P32245); assay: Radioligand binding, human melanocortin MC4 membranes, FlashPlate, [125I]-NDP-αMSH
T4 construct: purchased Perkin Elmer Biosignal
T4 sequence (P32245 whole entry): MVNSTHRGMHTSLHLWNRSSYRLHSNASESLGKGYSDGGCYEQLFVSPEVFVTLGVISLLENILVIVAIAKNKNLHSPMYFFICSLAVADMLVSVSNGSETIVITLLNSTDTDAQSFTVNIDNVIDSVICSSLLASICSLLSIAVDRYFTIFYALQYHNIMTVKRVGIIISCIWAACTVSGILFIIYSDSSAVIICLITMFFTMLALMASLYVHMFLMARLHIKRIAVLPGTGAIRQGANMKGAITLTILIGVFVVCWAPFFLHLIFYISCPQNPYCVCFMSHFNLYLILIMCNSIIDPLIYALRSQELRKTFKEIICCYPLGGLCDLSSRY
Method in brief: as §1

[5] = molecular target: T5, Human melanocortin (MC5) (Homo sapiens, UniProt P33032); assay: Radioligand binding, human melanocortin MC5 membranes, FlashPlate, [125I]-NDP-αMSH
T5 construct: purchased Perkin Elmer Biosignal
T5 sequence (P33032 whole entry): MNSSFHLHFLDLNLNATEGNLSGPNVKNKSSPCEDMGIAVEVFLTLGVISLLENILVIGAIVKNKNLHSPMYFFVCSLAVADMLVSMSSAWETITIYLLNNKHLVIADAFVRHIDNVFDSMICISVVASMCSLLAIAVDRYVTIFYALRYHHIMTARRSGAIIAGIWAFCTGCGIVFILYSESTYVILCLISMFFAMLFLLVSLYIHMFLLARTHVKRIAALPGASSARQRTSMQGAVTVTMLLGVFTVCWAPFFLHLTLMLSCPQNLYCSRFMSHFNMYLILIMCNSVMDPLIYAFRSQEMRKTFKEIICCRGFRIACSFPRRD
Method in brief: as §1

[6] = molecular target: T6, Human melanin-concentrating hormone (MCH1) (Homo sapiens, UniProt Q99705); assay: Radioligand binding, human melanin-concentrating hormone MCH1 membranes, FlashPlate, [125I]-S36057
T6 construct: purchased Perkin Elmer Biosignal
T6 sequence (Q99705 whole entry): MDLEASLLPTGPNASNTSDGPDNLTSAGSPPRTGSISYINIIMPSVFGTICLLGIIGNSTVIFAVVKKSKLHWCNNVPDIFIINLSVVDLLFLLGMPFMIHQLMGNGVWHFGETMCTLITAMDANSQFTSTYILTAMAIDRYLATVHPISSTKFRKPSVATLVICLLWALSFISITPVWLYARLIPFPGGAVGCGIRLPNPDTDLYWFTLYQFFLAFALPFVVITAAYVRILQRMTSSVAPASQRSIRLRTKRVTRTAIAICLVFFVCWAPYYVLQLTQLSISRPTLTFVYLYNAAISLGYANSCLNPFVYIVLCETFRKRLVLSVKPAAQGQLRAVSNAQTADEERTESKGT
Method in brief: as §1

[7] = molecular target: T7, Human μ-opioid (MOP) (Homo sapiens, UniProt P35372); assay: Radioligand binding, human μ-opioid (MOP) membranes, FlashPlate, [3H]-Naloxone
T7 construct: purchased Perkin Elmer Biosignal
T7 sequence (P35372 whole entry): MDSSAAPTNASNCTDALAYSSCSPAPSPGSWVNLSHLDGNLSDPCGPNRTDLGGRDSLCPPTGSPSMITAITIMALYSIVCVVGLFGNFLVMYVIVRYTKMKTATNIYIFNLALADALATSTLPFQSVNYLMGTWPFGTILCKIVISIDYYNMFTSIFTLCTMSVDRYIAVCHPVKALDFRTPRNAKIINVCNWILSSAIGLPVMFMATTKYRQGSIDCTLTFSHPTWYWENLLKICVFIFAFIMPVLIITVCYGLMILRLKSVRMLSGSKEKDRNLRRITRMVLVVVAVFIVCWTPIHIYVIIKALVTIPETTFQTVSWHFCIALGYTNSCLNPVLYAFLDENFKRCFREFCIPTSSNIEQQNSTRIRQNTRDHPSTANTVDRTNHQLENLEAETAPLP
Method in brief: as §1

[8] = molecular target: T8, Human neurokinin (NK1) (Homo sapiens, UniProt P25103); assay: Radioligand binding, human neurokinin NK1 membranes, filtration, [125I]-Substance P
T8 construct: purchased Perkin Elmer Biosignal
T8 sequence (P25103 whole entry): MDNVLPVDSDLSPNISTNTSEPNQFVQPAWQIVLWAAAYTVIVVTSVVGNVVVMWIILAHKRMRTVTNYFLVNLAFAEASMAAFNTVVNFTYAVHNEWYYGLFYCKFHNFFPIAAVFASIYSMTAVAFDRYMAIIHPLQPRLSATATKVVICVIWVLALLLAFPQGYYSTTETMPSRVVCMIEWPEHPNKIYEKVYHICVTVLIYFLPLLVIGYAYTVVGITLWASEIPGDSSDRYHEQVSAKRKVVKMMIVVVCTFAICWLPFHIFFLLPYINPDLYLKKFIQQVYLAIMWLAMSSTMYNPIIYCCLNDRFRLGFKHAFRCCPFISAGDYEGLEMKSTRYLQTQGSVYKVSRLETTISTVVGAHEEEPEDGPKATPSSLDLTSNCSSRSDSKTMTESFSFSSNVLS
Method in brief: as §2

[9] = molecular target: T9, Human neuropeptide Y (NPY-Y1) (Homo sapiens, UniProt P25929); assay: Radioligand binding, human neuropeptide Y NPY-Y1 membranes, FlashPlate, [125I]-PYY
T9 construct: purchased Perkin Elmer Biosignal
T9 sequence (P25929 1-384): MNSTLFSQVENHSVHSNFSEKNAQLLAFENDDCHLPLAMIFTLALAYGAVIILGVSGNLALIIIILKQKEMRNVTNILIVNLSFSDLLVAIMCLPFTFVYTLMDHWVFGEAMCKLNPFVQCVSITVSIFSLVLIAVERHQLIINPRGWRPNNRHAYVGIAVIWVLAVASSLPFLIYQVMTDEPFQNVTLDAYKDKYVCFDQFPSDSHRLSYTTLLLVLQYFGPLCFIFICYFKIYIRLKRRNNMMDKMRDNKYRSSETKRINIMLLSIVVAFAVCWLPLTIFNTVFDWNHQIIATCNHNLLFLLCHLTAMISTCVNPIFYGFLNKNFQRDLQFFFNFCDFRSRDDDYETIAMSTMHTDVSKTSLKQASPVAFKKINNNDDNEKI
Method in brief: as §1

[10] = molecular target: T10, Human opioid (ORL1) (Homo sapiens, UniProt P41146); assay: Radioligand binding, human opioid ORL1 membranes, FlashPlate, [125I]-Nociceptin
T10 construct: purchased Perkin Elmer Biosignal
T10 sequence (P41146 whole entry): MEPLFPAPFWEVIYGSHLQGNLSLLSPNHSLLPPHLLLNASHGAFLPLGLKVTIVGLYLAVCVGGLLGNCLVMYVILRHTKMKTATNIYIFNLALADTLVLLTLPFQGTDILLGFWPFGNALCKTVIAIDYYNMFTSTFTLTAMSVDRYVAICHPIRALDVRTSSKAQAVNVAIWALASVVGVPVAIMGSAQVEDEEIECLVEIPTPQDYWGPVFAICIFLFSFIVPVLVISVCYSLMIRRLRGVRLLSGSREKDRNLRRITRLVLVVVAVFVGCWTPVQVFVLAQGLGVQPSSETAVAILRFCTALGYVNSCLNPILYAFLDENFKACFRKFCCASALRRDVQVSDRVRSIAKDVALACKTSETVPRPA
Method in brief: as §1

[11] = molecular target: T11, Mouse urotensin (mUR2) (Mus musculus, UniProt Q8VIH9); assay: Radioligand binding, mouse urotensin mUR2 membranes, FlashPlate, [125I]-Urotensin II
T11 construct: purchased Perkin Elmer Biosignal
T11 sequence (Q8VIH9 1-385): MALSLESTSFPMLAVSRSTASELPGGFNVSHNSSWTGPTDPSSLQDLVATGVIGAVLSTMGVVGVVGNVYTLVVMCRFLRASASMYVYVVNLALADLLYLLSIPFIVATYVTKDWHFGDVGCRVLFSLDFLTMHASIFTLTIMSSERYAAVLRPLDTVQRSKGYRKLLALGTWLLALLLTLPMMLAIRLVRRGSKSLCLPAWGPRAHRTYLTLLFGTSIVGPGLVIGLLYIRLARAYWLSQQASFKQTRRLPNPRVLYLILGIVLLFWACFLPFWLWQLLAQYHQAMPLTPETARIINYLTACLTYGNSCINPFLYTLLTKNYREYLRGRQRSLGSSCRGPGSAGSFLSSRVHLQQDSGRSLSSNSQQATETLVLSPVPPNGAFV
Method in brief: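 Cloned mouse urotensin (mUR2) receptor membranes from Perkin Elmer Biosignal were immobilized in FlashPlate microplates using a proprietary coating. Each well got 19.5 μl buffer, then 0.5 μl of DMSO, reference ligand, or compound. Adding 5 μl of [125I]-Urotensin II, diluted to 5× final concentration in binding buffer, started binding. Plates were sealed with TopSeal-A and incubated 1 hour at room temperature in the dark. Wells were counted for 30 seconds each on a TopCount after a 60-second delay, and percentage inhibition was calculated.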

[12] = [125I]-Urotensin II, FlashPlate

T1 sequence (P41143 whole entry): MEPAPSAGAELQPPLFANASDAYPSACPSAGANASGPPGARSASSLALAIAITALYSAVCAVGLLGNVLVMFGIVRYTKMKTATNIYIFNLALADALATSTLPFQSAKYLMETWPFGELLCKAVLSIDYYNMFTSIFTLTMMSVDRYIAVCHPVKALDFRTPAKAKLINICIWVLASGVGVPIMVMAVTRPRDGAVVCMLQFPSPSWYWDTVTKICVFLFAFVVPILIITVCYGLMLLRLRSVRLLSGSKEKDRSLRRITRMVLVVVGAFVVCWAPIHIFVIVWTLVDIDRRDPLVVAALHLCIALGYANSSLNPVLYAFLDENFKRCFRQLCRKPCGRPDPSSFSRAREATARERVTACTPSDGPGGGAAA

NCCC(=O)NC1C(OCc2ccc3ccccc3c2)OC(COCc2ccc(Cl)cc2)C(O)C1OCc1ccccc1 (single isomer, unassigned) [compound 452]
A1: inhibition of radioligand binding ([1]; [3H]-Bremazocine, human DOP membranes): − (“−” indicates less than 50% inhibition at 10 μM)
A2: inhibition of radioligand binding ([2]; [3H]-Diprenorphine, human KOP membranes): − (“−” indicates less than 50% inhibition at 10 μM)
A3: inhibition of radioligand binding ([3]; [125I]-NDP-αMSH, human MC3 membranes, 10 µM): − (“−” indicates less than 50% inhibition at 10 μM)
A4: inhibition of radioligand binding ([4]; [125I]-NDP-αMSH, human MC4 membranes): + (“+” indicates greater than 50% inhibition at 10 μM)
A5: inhibition of radioligand binding ([5]; [125I]-NDP-αMSH, human MC5 membranes): + (“+” indicates greater than 50% inhibition at 10 μM)
A6: inhibition of radioligand binding ([6]; [125I]-S36057, human MCH1 membranes, 10 µM): − (“−” indicates less than 50% inhibition at 10 μM)
A7: inhibition of radioligand binding ([7]; [3H]-Naloxone, human MOP membranes): − (“−” indicates less than 50% inhibition at 10 μM)
A8: inhibition of radioligand binding ([8]; [125I]-Substance P, human NK1 membranes): + (“+” indicates greater than 50% inhibition at 10 μM)
A9: inhibition of radioligand binding ([9]; [125I]-PYY, human NPY-Y1 membranes): − (“−” indicates less than 50% inhibition at 10 μM)
A10: inhibition of radioligand binding ([10]; [125I]-Nociceptin, human ORL1 membranes, 10 µM): − (“−” indicates less than 50% inhibition at 10 μM)
A11: inhibition of radioligand binding ([11]; [125I]-Urotensin II, mouse mUR2 membranes): − (“−” indicates less than 50% inhibition at 10 μM)

COCC1OC(OCc2ccccc2)C(NC(=O)CCCNC(=N)N)C(OCc2ccc3ccccc3c2)C1O (stereo not shown) [compound 193]
A1: inhibition of radioligand binding ([1]; [3H]-Bremazocine, FlashPlate): − (“−” indicates less than 50% inhibition at 10 μM)
A2: inhibition of radioligand binding ([2]; [3H]-Diprenorphine, filtration): − (“−” indicates less than 50% inhibition at 10 μM)
A3: inhibition of radioligand binding ([3]; [125I]-NDP-αMSH, FlashPlate): + (“+” indicates greater than 50% inhibition at 10 μM)
A4: inhibition of radioligand binding ([4]; [125I]-NDP-αMSH, FlashPlate): + (“+” indicates greater than 50% inhibition at 10 μM)
A5: inhibition of radioligand binding ([5]; [125I]-NDP-αMSH, FlashPlate): + (“+” indicates greater than 50% inhibition at 10 μM)
A6: inhibition of radioligand binding ([6]; [125I]-S36057, FlashPlate): + (“+” indicates greater than 50% inhibition at 10 μM)
A7: inhibition of radioligand binding ([7]; [3H]-Naloxone, FlashPlate): − (“−” indicates less than 50% inhibition at 10 μM)
A8: inhibition of radioligand binding ([8]; [125I]-Substance P, filtration): + (“+” indicates greater than 50% inhibition at 10 μM)
A9: inhibition of radioligand binding ([9]; [125I]-PYY, FlashPlate): − (“−” indicates less than 50% inhibition at 10 μM)
A10: inhibition of radioligand binding ([10]; [125I]-Nociceptin, FlashPlate): − (“−” indicates less than 50% inhibition at 10 μM)
A11: inhibition of radioligand binding [11, 12]: − (“−” indicates less than 50% inhibition at 10 μM)

COC[C@H]1OC(OCc2ccc3ccccc3c2)[C@H](NC(=O)CCCN)[C@@H](OCc2ccc3ccccc3c2)[C@@H]1O (stereo partly shown) [compound 338]
A1: inhibition of radioligand binding, human δ-opioid (DOP) ([1]; [3H]-Bremazocine): − (“−” indicates less than 50% inhibition at 10 μM)
A2: inhibition of radioligand binding, human κ-opioid (KOP) ([2]; [3H]-Diprenorphine): − (“−” indicates less than 50% inhibition at 10 μM)
A3: inhibition of radioligand binding, human melanocortin (MC3) ([3]; [125I]-NDP-αMSH): − (“−” indicates less than 50% inhibition at 10 μM)
A4: inhibition of radioligand binding, human melanocortin (MC4) ([4]; [125I]-NDP-αMSH): − (“−” indicates less than 50% inhibition at 10 μM)
A5: inhibition of radioligand binding, human melanocortin (MC5) ([5]; [125I]-NDP-αMSH): − (“−” indicates less than 50% inhibition at 10 μM)
A6: inhibition of radioligand binding, human melanin-concentrating hormone (MCH1) ([6]; [125I]-S36057): − (“−” indicates less than 50% inhibition at 10 μM)
A7: inhibition of radioligand binding, human μ-opioid (MOP) ([7]; [3H]-Naloxone): + (“+” indicates greater than 50% inhibition at 10 μM)
A8: inhibition of radioligand binding, human neurokinin (NK1) ([8]; [125I]-Substance P): + (“+” indicates greater than 50% inhibition at 10 μM)
A9: inhibition of radioligand binding, human neuropeptide Y (NPY-Y1) ([9]; [125I]-PYY): − (“−” indicates less than 50% inhibition at 10 μM)
A10: inhibition of radioligand binding, human opioid (ORL1) ([10]; [125I]-Nociceptin): − (“−” indicates less than 50% inhibition at 10 μM)
A11: inhibition of radioligand binding, mouse urotensin (mUR2) ([11]; [125I]-Urotensin II): − (“−” indicates less than 50% inhibition at 10 μM)

CO[C@H]1[C@H](O)[C@@H](COCc2ccc(-c3ccccc3)cc2)OC(OCc2ccccc2)[C@@H]1NC(=O)CCCN (stereo partly shown) [compound 84]
A1 radioligand binding inhibition ([1]; human δ-opioid (DOP) membranes): − (“−” indicates less than 50% inhibition at 10 μM)
A2 radioligand binding inhibition ([2]; human κ-opioid (KOP) membranes): − (“−” indicates less than 50% inhibition at 10 μM)
A3 radioligand binding inhibition ([3]; human melanocortin MC3 membranes): − (“−” indicates less than 50% inhibition at 10 μM)
A4 radioligand binding inhibition ([4]; human melanocortin MC4 membranes): − (“−” indicates less than 50% inhibition at 10 μM)
A5 radioligand binding inhibition ([5]; human melanocortin MC5 membranes): − (“−” indicates less than 50% inhibition at 10 μM)
A6 radioligand binding inhibition ([6]; human MCH1 membranes): − (“−” indicates less than 50% inhibition at 10 μM)
A7 radioligand binding inhibition ([7]; human μ-opioid (MOP) membranes): − (“−” indicates less than 50% inhibition at 10 μM)
A8 radioligand binding inhibition ([8]; human neurokinin NK1 membranes): + (“+” indicates greater than 50% inhibition at 10 μM)
A9 radioligand binding inhibition ([9]; human NPY-Y1 membranes): − (“−” indicates less than 50% inhibition at 10 μM)
A10 radioligand binding inhibition ([10]; human ORL1 membranes): − (“−” indicates less than 50% inhibition at 10 μM)
A11 radioligand binding inhibition ([11]; mouse urotensin mUR2 membranes): − (“−” indicates less than 50% inhibition at 10 μM)

COCC1OC(OCCc2ccccc2)C(NC(=O)CNC(=N)N)C(OCc2ccccc2)C1O (stereo not shown) [compound 215]
A1: inhibition of radioligand binding ([1]; [3H]-Bremazocine, FlashPlate): − (“−” indicates less than 50% inhibition at 10 μM)
A2: inhibition of radioligand binding ([2]; [3H]-Diprenorphine, filtration): − (“−” indicates less than 50% inhibition at 10 μM)
A3: inhibition of radioligand binding ([3]; [125I]-NDP-αMSH, FlashPlate): − (“−” indicates less than 50% inhibition at 10 μM)
A4: inhibition of radioligand binding ([4]; [125I]-NDP-αMSH, FlashPlate): − (“−” indicates less than 50% inhibition at 10 μM)
A5: inhibition of radioligand binding ([5]; [125I]-NDP-αMSH, FlashPlate): + (“+” indicates greater than 50% inhibition at 10 μM)
A6: inhibition of radioligand binding ([6]; [125I]-S36057, FlashPlate): − (“−” indicates less than 50% inhibition at 10 μM)
A7: inhibition of radioligand binding ([7]; [3H]-Naloxone, FlashPlate): − (“−” indicates less than 50% inhibition at 10 μM)
A8: inhibition of radioligand binding ([8]; [125I]-Substance P, filtration): + (“+” indicates greater than 50% inhibition at 10 μM)
A9: inhibition of radioligand binding ([9]; [125I]-PYY, FlashPlate): − (“−” indicates less than 50% inhibition at 10 μM)
A10: inhibition of radioligand binding ([10]; [125I]-Nociceptin, FlashPlate): − (“−” indicates less than 50% inhibition at 10 μM)
A11: inhibition of radioligand binding [11, 12]: − (“−” indicates less than 50% inhibition at 10 μM)
